Results reported in ChEMBL document CHEMBL1201862, “PubChem BioAssay data set” (2004).
Activity calls are given as the source filed them.

Legend:
[1] = target: Luciferin 4-monooxygenase (Photinus pyralis, UniProt P08659); experiment: firefly luciferase enzyme inhibitors, dose response, biochemical, luminescence (AID 1891)
[2] = Luminescence Cell-Based Dose Confirmation HTS to Identify Inhibitors of Platelet Dense Granule Release. [Related pubchem assays: 1663 (Primary HTS), 1678 (Summary of Project)]; assay type: functional
[3] = target: T1, Oxysterols receptor LXR-beta (Homo sapiens, UniProt P55055); experiment: LXR agonists, Gal4 luciferase reporter, dose response, counter-screen for ssDAF-12 agonist project, cell-based, luminescence, HEK293, S. stercoralis campaign (AID 720737); assay type: functional; settings: read-out: IC50 (the source's name)
T1 sequence (P55055 whole entry): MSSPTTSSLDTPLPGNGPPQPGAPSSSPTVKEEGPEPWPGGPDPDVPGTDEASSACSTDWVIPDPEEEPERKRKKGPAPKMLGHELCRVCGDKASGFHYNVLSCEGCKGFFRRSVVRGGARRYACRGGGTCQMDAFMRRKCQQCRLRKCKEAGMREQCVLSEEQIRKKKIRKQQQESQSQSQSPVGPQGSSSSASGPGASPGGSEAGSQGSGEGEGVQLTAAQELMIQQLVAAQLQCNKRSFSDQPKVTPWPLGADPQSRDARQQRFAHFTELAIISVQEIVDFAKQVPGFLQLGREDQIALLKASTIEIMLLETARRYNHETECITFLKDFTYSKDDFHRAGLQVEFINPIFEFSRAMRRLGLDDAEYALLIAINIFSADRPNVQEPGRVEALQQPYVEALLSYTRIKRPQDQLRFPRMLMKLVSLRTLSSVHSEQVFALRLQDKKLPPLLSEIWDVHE

[4] = Luminescence-based cell-based high throughput dose response assay to identify activators of the DAF-12 from the parasite S. stercoralis (ssDAF-12).; assay type: functional
[5] = target: T2, Rac GTPase-activating protein 1 (Homo sapiens, UniProt Q9H0H5); experiment: MgcRacGAP GTPase-activating activity inhibitors, confirmation, biochemical, ADP Hunter fluorescence, primary and confirmatory (AID 624330); assay type: functional
T2 sequence (Q9H0H5 whole entry): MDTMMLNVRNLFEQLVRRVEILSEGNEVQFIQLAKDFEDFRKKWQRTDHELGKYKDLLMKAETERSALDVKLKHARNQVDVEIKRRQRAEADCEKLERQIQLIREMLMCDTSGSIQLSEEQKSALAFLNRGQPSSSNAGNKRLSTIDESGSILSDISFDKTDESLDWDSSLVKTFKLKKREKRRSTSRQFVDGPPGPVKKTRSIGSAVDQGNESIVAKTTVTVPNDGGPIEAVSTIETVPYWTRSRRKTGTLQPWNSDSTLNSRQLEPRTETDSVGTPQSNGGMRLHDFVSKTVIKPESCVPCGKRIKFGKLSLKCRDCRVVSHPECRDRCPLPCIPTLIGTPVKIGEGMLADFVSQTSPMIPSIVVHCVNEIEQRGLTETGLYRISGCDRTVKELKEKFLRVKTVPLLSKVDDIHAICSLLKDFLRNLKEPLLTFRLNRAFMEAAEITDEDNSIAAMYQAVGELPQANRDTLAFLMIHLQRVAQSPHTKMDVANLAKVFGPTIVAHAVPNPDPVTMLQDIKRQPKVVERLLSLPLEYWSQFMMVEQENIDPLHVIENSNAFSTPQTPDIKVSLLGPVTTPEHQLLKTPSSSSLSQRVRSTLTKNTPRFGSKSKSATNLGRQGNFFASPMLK

[6] = THP-1 cell cytotoxicity, dose response, cytotoxicity control for Vif-APOBEC3G degradation inhibitor project, THP-1 cells (AID 1117359); assay type: functional; settings: Human immunodeficiency virus 1, THP-1
[7] = target: T3, Calpain-2 catalytic subunit (Sus scrofa, UniProt P43367); experiment: pig calpain II inhibitor potency, dose response, biochemical, fluorogenic peptide substrate (AID 1420); assay type: functional
T3 sequence (P43367 whole entry): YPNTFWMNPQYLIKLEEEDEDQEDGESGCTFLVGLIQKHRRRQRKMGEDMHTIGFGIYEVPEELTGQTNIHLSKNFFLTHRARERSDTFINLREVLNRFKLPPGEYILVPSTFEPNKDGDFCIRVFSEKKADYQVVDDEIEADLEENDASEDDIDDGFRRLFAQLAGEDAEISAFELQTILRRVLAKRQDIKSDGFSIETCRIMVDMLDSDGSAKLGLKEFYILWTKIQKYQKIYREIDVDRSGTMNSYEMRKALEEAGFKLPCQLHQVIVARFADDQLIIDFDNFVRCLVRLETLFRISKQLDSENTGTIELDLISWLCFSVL

Vero = Vero cell cytotoxicity, cytotoxicity control for flavivirus capping enzyme inhibitors (AID 588742); assay type: functional; settings: Chlorocebus sabaeus
[8] = target: Mitogen-activated protein kinase 10 (Homo sapiens, UniProt P53779); experiment: Dose response biochemical screening assay for inhibitors of c-Jun N-Terminal Kinase 3 (JNK3). [Related pubchem assays: 746 ]
Sequence of Mitogen-activated protein kinase 10 (P53779 whole entry): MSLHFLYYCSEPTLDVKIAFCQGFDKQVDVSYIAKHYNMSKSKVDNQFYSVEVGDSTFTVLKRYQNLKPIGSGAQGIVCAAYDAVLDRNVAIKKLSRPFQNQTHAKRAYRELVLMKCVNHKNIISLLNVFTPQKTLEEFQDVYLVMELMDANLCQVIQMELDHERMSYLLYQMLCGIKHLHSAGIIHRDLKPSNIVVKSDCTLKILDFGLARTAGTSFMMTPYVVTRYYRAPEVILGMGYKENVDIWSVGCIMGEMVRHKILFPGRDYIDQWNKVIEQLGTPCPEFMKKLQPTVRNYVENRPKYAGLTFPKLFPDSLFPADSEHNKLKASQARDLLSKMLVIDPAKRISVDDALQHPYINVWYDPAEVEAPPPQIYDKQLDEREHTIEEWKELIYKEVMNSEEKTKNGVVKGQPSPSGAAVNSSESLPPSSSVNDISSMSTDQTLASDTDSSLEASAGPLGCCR

[9] = target: T4, 1-phosphatidylinositol 4,5-bisphosphate phosphodiesterase gamma-1 (Homo sapiens, UniProt P19174); experiment: Counterscreen for inhibitors of phospholipase C isozymes (PLC-B3): Fluorescence-based biochemical high throughput dose response assay to identify inhibitors of phospholipase C isozymes (PLC-gamma1).
T4 sequence (P19174 whole entry): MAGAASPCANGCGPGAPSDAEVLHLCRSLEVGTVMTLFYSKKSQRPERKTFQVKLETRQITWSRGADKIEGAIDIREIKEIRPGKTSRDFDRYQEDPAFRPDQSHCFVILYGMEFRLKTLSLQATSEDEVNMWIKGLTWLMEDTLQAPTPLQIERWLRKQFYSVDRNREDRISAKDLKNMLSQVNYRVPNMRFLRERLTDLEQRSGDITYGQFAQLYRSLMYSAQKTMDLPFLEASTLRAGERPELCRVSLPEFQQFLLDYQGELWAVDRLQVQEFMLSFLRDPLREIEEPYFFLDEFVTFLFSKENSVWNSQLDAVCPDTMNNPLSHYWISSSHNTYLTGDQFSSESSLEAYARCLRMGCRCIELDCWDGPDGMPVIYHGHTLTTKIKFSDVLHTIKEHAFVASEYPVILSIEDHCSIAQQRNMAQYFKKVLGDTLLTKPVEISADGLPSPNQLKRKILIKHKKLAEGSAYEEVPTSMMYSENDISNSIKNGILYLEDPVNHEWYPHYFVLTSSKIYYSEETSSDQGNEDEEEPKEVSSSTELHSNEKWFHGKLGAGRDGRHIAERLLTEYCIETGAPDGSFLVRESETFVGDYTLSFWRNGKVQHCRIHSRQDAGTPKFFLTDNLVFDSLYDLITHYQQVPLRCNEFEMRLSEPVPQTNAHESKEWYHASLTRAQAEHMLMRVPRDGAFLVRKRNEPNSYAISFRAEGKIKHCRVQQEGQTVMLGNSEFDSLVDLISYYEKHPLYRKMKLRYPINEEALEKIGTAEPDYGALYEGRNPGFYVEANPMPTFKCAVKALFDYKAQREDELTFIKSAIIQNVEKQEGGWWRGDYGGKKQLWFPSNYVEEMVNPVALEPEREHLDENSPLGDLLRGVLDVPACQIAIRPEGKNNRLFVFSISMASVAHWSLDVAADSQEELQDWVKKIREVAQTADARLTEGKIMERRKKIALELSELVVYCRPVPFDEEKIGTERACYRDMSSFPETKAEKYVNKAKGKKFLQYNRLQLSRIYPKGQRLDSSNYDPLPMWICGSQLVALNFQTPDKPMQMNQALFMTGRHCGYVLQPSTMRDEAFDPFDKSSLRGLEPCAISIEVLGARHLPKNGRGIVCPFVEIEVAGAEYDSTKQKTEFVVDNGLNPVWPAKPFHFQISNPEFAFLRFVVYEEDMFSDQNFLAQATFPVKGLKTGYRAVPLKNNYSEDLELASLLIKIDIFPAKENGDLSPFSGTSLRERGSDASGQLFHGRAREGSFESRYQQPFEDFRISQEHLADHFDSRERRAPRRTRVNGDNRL

[10] = target: T5, 1-phosphatidylinositol 4,5-bisphosphate phosphodiesterase beta-3 (Homo sapiens, UniProt Q01970); experiment: Fluorescence-based biochemical high throughput dose response assay to identify inhibitors of phospholipase C isozymes (PLC-B3).
T5 sequence (Q01970 whole entry): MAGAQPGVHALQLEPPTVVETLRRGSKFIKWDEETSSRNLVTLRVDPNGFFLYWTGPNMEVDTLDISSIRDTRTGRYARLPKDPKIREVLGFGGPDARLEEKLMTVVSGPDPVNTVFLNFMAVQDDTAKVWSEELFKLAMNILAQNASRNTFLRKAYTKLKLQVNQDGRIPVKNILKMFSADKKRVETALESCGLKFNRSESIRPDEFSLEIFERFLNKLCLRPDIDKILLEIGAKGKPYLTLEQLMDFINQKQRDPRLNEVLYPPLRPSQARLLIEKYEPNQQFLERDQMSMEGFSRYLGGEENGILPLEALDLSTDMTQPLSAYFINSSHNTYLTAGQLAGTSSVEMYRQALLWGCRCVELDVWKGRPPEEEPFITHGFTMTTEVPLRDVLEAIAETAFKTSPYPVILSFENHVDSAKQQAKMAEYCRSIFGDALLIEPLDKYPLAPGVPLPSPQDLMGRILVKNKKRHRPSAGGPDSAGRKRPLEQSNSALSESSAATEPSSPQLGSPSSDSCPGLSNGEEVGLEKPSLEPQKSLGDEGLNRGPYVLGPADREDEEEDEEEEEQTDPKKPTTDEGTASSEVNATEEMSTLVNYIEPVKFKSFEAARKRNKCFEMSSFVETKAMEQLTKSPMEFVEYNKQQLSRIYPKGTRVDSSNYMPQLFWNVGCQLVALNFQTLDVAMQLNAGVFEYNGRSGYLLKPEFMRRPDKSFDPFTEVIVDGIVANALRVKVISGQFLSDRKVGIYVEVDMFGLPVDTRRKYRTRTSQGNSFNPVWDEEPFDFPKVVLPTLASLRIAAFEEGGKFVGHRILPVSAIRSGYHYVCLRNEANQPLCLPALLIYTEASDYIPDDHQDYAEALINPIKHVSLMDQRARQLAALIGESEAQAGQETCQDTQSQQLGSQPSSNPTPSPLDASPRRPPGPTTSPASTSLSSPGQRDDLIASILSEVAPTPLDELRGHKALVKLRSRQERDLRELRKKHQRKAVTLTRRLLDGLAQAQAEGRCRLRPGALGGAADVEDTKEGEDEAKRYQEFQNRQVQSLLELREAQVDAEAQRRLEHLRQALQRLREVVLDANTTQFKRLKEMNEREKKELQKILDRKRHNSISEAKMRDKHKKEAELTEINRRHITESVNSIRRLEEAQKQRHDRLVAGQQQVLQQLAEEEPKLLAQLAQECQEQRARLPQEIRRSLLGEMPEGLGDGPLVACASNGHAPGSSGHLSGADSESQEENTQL

Large T antigen = Large T antigen (Simian virus 40, UniProt P03070); assay type: functional, Betapolyomavirus macacae;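 also: Confirmatory-stage PubChem screen for compounds that inhibit SV40 T antigen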
Sequence of Large T antigen (P03070 whole entry): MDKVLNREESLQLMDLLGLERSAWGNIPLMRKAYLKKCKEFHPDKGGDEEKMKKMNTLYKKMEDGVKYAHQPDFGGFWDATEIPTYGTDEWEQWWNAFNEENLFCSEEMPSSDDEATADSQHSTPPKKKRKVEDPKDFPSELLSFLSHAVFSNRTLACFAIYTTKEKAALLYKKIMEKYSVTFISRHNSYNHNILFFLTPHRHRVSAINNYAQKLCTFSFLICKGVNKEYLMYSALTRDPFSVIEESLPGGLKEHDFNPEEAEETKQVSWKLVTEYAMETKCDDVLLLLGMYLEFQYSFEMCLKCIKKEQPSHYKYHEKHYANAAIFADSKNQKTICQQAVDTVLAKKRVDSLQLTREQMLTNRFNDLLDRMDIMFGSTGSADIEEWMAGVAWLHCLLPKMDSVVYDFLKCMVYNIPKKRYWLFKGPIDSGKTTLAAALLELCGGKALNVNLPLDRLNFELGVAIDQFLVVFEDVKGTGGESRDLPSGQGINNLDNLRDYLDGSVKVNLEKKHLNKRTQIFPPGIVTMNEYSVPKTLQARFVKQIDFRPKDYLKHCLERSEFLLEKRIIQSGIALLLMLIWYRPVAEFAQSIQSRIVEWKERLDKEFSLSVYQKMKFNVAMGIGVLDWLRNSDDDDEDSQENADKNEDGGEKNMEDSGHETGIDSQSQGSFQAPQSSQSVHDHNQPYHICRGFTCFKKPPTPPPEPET

[11] = target: Induced myeloid leukemia cell differentiation protein Mcl-1 (Homo sapiens, UniProt Q07820); assay type: functional
Sequence of Induced myeloid leukemia cell differentiation protein Mcl-1 (Q07820 whole entry): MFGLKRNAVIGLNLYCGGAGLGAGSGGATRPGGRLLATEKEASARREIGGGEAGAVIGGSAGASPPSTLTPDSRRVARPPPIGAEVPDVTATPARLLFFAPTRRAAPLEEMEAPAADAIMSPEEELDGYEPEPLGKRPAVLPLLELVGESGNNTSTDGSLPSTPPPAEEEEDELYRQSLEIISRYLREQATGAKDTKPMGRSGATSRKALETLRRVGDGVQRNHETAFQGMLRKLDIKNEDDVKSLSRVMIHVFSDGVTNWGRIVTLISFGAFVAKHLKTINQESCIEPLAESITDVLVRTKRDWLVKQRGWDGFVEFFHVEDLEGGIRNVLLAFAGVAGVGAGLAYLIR

Kallikrein-7 = Kallikrein-7 (Homo sapiens, UniProt P49862); experiment: Fluorescence Intensity-based biochemical primary high throughput dose response assay to identify activators of kallikrein-7 (K7) zymogen.
Sequence of Kallikrein-7 (P49862 whole entry): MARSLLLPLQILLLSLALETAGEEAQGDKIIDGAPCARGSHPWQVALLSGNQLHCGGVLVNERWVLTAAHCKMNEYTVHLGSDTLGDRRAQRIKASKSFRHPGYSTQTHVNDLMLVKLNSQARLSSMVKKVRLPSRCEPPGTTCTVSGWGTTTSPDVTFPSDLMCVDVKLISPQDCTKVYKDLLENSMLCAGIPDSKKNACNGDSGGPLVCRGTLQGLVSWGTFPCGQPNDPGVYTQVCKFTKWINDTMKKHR

[12] = target: T6, Heat shock factor protein 1 (Mus musculus, UniProt P38532); experiment: HSF1 potentiators in luciferase reporter cells, confirmation, cell-based, NIH3T3, luminescence, dose retest (AID 435004); assay type: functional;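 also: stress induced by proteasome inhibitor MG132 added 30 min after compound; luciferase reporter driven by HSF1 response element in NIH3T3 cells; actives raise luminescence as potentiators of the MG132 stress response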
T6 sequence (P38532 whole entry): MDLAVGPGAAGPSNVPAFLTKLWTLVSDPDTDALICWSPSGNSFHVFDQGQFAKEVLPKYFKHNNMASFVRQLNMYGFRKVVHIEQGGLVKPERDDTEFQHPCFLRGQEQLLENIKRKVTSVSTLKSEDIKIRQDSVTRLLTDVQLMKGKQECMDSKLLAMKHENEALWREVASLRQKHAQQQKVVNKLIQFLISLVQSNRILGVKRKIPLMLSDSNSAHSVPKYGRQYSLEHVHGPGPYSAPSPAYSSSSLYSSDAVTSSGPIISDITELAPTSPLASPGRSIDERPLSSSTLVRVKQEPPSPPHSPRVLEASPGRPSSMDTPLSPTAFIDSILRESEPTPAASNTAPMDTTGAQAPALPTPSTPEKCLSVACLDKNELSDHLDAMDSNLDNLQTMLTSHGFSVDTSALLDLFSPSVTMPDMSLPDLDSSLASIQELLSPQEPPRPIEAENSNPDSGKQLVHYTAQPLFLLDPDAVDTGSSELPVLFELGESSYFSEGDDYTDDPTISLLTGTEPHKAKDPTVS

Sequence of Luciferin 4-monooxygenase (P08659 whole entry): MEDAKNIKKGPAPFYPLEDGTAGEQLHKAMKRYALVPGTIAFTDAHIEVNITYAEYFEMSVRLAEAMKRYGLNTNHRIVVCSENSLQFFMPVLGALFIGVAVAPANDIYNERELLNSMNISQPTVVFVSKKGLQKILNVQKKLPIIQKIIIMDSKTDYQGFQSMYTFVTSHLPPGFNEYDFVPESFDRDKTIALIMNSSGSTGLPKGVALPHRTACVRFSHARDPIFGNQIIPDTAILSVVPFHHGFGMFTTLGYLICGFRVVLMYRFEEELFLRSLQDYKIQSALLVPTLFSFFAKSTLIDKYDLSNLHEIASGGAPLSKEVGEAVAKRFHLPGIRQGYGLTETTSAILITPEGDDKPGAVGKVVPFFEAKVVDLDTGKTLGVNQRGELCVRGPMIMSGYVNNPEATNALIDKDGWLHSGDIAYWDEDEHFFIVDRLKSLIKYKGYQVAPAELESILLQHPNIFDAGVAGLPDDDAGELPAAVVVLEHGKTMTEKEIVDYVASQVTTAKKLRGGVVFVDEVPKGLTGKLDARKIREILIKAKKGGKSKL

## COc1ccc(/C=N/Nc2nc3ccccc3s2)cc1O
[1]
  EC50: 0.947 µM (active)
[2]
  EC50: 5.38 µM (active)
[3]
  EC50: > 67.5 µM (inactive)
[4]
  IC50: > 67.5 µM (inactive)
[5]
  IC50: 102 µM (active)

## COc1cc(CNc2ccc(O)cc2)cc(Br)c1OCc1ccccc1
[6]
  CC50: > 40 µM (active)
[7]
  IC50: 13 µM (not active)
Vero
  CC50: > 40 µM (active)

## O=C(CN1C(=O)/C(=C\c2cccs2)SC1=S)Nc1cccc(C(=O)O)c1
[6]
  CC50: > 40 µM (active)

## O=C(Nc1nncs1)c1ccc(N2C(=O)C3C4C=CC(C4)C3C2=O)cc1 (stereo not given)
[8]
  IC50: 62.9 µM (not active)

## O=C(Cc1cccs1)N1CCC(c2nc(O)c3nnn(Cc4ccccc4)c3n2)CC1
[9]
  IC50: > 122 µM (inactive)
[10]
  IC50: > 122 µM (inactive)

## CC(C)NC(=O)c1nc2ccccc2s1
[3]
  EC50: > 67.5 µM (inactive)
[4]
  IC50: > 67.5 µM (inactive)

## O=C(OCC1O[C@@H](OC(=O)c2cc(O)c(O)c(O)c2)[C@@H](OC(=O)c2cc(O)c(O)c(O)c2)[C@@H](OC(=O)c2cc(O)c(O)c(O)c2)[C@@H]1OC(=O)c1cc(O)c(O)c(O)c1)c1cc(O)c(O)c(O)c1 (stereo not given in full)
[6]
  CC50: 20.6 µM (active)
Large T antigen
  IC50: 4.51 µM (active)
[11]
  IC50: 4.54 µM (active)

## COc1ccc(OC)c(/C=N/NC(=O)CN2CCSCC2)c1
Kallikrein-7
  EC50: 10.5 µM (inactive)

## Cn1c(C(=O)N2CCN(Cc3ccc4c(c3)OCO4)CC2)cc2c(=O)n(C)c3ccccc3c21
[8]
  IC50: 72.6 µM (not active)

## Cc1cc(=O)oc2cc(OCC(=O)N3CCOCC3)c(Cl)cc12
Kallikrein-7
  EC50: > 69.6 µM (inactive)

## O=[N+]([O-])c1ccc(Sc2ncccn2)c([N+](=O)[O-])c1
[12]
  EC50: 6.83 µM (active)
[9]
  IC50: > 123 µM (inactive)
[10]
  IC50: > 123 µM (inactive)

## O=C(/C=C/c1ccccc1)c1c[nH]c2ccccc12
[3]
  EC50: > 67.4 µM (inactive)
[4]
  IC50: > 67.4 µM (inactive)
